Source: patent US6211223A, “Indole derivatives useful in therapy” (Pfizer Inc., priority 1997, dated 2001)

What was measured:
neointimal formation = settings: rats, balloon angioplasty; S. Douglas et al, Circ Res, 75, 1994; cited from earlier work
[1] = biological target: T1, cloned human ETA receptor (Homo sapiens, UniProt P25101); assay: Test A: Binding Assay, competition with 125I-ET-1, Binding to ETA Receptors (selectivity versus Binding to ETB Receptors)
T1 sequence (P25101 21-427): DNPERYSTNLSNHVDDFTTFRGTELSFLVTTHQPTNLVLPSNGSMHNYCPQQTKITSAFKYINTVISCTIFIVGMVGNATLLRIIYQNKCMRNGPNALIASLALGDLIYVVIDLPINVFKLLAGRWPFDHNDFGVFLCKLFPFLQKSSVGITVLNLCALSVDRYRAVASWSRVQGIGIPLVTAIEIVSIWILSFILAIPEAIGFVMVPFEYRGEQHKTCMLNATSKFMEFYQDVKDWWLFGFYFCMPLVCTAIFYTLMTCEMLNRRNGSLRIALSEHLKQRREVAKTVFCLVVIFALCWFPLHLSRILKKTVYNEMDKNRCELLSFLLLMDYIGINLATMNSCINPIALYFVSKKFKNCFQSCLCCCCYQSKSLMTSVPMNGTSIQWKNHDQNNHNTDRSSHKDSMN
Method: Competition between test compounds and ^125 I-ET-1 binding to human endothelin receptors is determined as follows.
(§1) 25 μl of a 30 pM solution of [^125 I]Tyr^13 ET-1 (specific activity 2,200 Ci/mM) is mixed with 25 μl samples of test compound (final concentrations in the range 0.1 nM-50,000 nM). 200 μl of a solution containing cloned human ETA receptor (0.75 pmoles receptor protein/ml), 50 mM Tris, 0.5 mM CaCl2, 0.1% human serum albumen, 0.1% bacitracin, 0.05% Tween 20, pH 7.4 is added. The solution is mixed at 37° C. for 2 hours. After the incubation, the unbound ligand is separated from receptor bound ligand by filtration with a Brandel cell harvester, followed by three washes of buffer. Filter papers are counted for radioactivity, and the IC50 (the concentration of test compound at which 50% of the radiolabelled compound is unbound) determined for the concentration range tested.
as §1, with “concentration” for “concentrations in the range”, “ETB” for “ETA”, “(0.25” for “(0.75”

| selectivity for ETA receptors over ETB receptors ([1]; ETA over ETB) | IC50 (ETA) relative to that of its enantiomer ([1]; fraction of the IC50 (ETA) of the (-)-enantiomer) | Ki ([1]; human ETA receptor, read-out: binding affinity for ETA receptors (Ki)) [nM] | Compound | reduction in neointimal formation relative to control animals (neointimal formation) [%] |
| --- | --- | --- | --- | --- |
| – | – | – | CCCOc1ccc2c(c1)[C@@H](c1ccc(OC)cc1OCC(=O)O)[C@H](C(=O)O)[C@H]2c1ccc2c(c1)OCO2 [SB-209670] | 50 |
| approximately 400 | approximately one quarter | 4.18 | COc1cc(C)ccc1S(=O)(=O)NC(=O)[C@@H](c1ccc2c(c1)OCO2)c1cn(C)c2cc(C(=O)O)ccc12 [Example 1, (S)-(+)-3-{1-(1,3-Benzodioxol-5-yl)-2-[(2-methoxy-4-methylphenyl)sulfonyl-amino]-2-oxoethyl}-1-methyl-1H-indole-6-carboxylic acid] | – |
